Data taken from paper PMC11513893, “Discovery of Oral Degraders of the ROS1 Fusion Protein with Potent Activity against Secondary Resistance Mutations” (Journal of Medicinal Chemistry, 2024).

Tests used:
[1] = tested on: Ba/F3 CD74-ROS1 non mutant; experiment: Antiproliferation assay (Alamar Blue, 72 h); type: cell-based, mouse; conditions: Ba/F3 cells, cell growth inhibition
Source text: (§1) To assess targeted degradation of ROS1 fusion proteins, we first established a mouse pro-B cell line Ba/F3 as a model expressing the CD74-ROS1 oncogene or CD74-ROS1 with clinically observed secondary/tertiary mutations. The Ba/F3 cell line is dependent on interleukin-3 for survival and proliferation. Upon transduction of oncogenic ROS1, Ba/F3 cells become independent of interleukin-3 but dependent on the transduced driver gene.
(§2) Ba/F3 immortalized murine bone marrow–derived pro-B cells were obtained from Creative Biogene (Shirley, NY) and cultured in RPMI supplemented with 10% FBS and IL3 (0.5 ng/mL). Ba/F3 cells expressing ROS1 variants were maintained in RPMI supplemented with 10% FBS and puromycin (0.7 mg/mL). […] Each compound was dissolved in DMSO and serially diluted in RPMI for cell culture experiments.
(§3) To assess the 72 h effect of drug treatment on cell proliferation, 2000 to 3000 cells were plated in replicates of three in 96-well plates. The plates were placed in an incubator at 37 °C, 5% CO2 for 72 h. Following drug treatments, the cells were incubated with the Alamar Blue Assay reagent (BioRad), 5 μL each well for 4 h at 37 °C and 5% CO2. Luminescence was measured on a multiplate reader and analyzed. […] IC50 values were determined using a nonlinear regression model with a sigmoidal dose response in GraphPad. The data were collected based on triplicate experiments, and presented as mean ± SD.
(§4) The resulting virus was used to infect Ba/F3 cells. After retroviral infection, Ba/F3 cells were selected by incubation with puromycin (0.7 mg/mL) for 2 weeks. For Ba/F3 cells infected by the CD74–ROS1 variants, IL3 was withdrawn from the culture medium at least 2 weeks before the experiments.

Ba/F3 ROS1-G2032R = experiment: Antiproliferation assay; type: cell-based, mouse; conditions: Ba/F3 cells, cell growth inhibition, 72 h
Source text: as §1, §2, §3, §4

ROS1 = ROS1 degradation in Ba/F3 cells (WES immunoblotting); type: cell-based; conditions: for DC50: concentration needed to reduce ROS1 protein by 50%, Ba/F3 cells; for Dmax (%) (ROS1): maximal degradation of ROS1 in Ba/F3 cells
Procedure: Protein levels were analyzed using a WES instrument according to the WES User Guide from ProteinSimple in duplicate experiments. The samples were mixed with the fluorescent 5 master mix (ProteinSimple) and then heated at 95 °C for 5 min. Boiled samples, biotinylated protein ladder, antibody diluent, Streptavidin-HRP, primary antibodies, ProteinSimple horseradish peroxidase conjugated antirabbit or antimouse secondary antibodies, luminol-peroxide, and wash buffer were loaded into the WES plate (Wes 12–230 kDa Prefilled Plates with Split Buffer, ProteinSimple). The plates and capillary cartridges were loaded into the WES instrument, and protein separation, antibody incubation, and imaging were performed according to manufacturer’s instructions. Compass software (ProteinSimple) was used to acquire the data and to generate the virtual blot image reconstruction and chemiluminescence signal intensity electropherograms. […] Protein levels are expressed as the AUC of the peak chemiluminescence intensity. Antibodies against phospho-ROS1(Tyr2274/2334) (E8F5J), ROS1 (D4D6(R)) were obtained from Cell Signaling Technology.

IC50 ([1]; Mus musculus, BaF3, 72 h) [nM]	IC50 (Ba/F3 ROS1-G2032R; Mus musculus, BaF3) [nM]	DC50 (ROS1) [nM]	Compound	Dmax (%) (ROS1) (ROS1)	IC50 [1] [nM]	IC50 (Ba/F3 ROS1-G2032R) [nM]
191 ± 60	950 ± 67	155	Cc1cc(Nc2ncc(Cl)c(Nc3ccccc3S(=O)(=O)C(C)C)n2)c(OC(C)C)cc1C1CCN(C2CCN(CC3CN(c4cccc5c4C(=O)N(C4CCC(=O)NC4=O)C5=O)C3)CC2)CC1 (centres unmarked) [8g, 4-(3-((4-(4-((5-Chloro-4-((2-(isopropylsulfonyl)phenyl)amino)pyrimidin-2-yl)amino)-5-isopropoxy-2-methylphenyl)-[1,4′-bipiperidin]-1′-yl)methyl)azetidin-1-yl)-2-(2,6-dioxopiperidin-3-yl)isoindoline-1,3-dione]	77		
7.1 ± 0.9	221 ± 26	11	COc1cc(C2CCN(C3CCN(CC4CCN(c5ccc6c(c5)C(=O)N(C5CCC(=O)NC5=O)C6=O)CC4)CC3)CC2)ccc1Nc1ncc(Cl)c(Nc2ccccc2P(C)(C)=O)n1 (centres unmarked) [9g, 5-(4-((4-(4-((5-Chloro-4-((2-(dimethylphosphoryl)phenyl)amino)pyrimidin-2-yl)amino)-3-methoxyphenyl)-[1,4′-bipiperidin]-1′-yl)methyl)piperidin-1-yl)-2-(2,6-dioxopiperidin-3-yl)isoindoline-1,3-dione]	88		
120 ± 39	> 10000	123	COc1cc(N2CCC(N3CCN(CC4CCN(c5ccc(C(=O)NC6CCC(=O)NC6=O)cc5)CC4)CC3)CC2)ccc1Nc1ncc(Cl)c(Nc2ccccc2P(C)(C)=O)n1 (centres unmarked) [9r, 4-(4-((4-(1-(4-((5-Chloro-4-((2-(dimethylphosphoryl)phenyl)amino)pyrimidin-2-yl)amino)-3-methoxyphenyl)piperidin-4-yl)piperazin-1-yl)methyl)piperidin-1-yl)-N-(2,6-dioxopiperidin-3-yl)benzamide]	28		
107 ± 16	1260 ± 93	143	Cc1cc(Nc2ncc(Cl)c(Nc3ccccc3S(=O)(=O)C(C)C)n2)c(OC(C)C)cc1C1CCN(C2CCN(c3cccc4c3C(=O)N(C3CCC(=O)NC3=O)C4=O)CC2)CC1 (centres unmarked) [8c, 4-(4-(4-((5-Chloro-4-((2-(isopropylsulfonyl)phenyl)amino)pyrimidin-2-yl)amino)-5-isopropoxy-2-methylphenyl)-[1,4′-bipiperidin]-1′-yl)-2-(2,6-dioxopiperidin-3-yl)isoindoline-1,3-dione]	82		
562 ± 61	> 10000	733	Cc1cc(Nc2ncc(Cl)c(Nc3ccccc3S(=O)(=O)C(C)C)n2)c(OC(C)C)cc1C1CCN(C2CCN(CCCNc3cccc4c3C(=O)N(C3CCC(=O)NC3=O)C4=O)CC2)CC1 (centres unmarked) [8e, 4-((3-(4-(4-((5-Chloro-4-((2-(isopropylsulfonyl)phenyl)amino)pyrimidin-2-yl)amino)-5-isopropoxy-2-methylphenyl)-[1,4′-bipiperidin]-1′-yl)propyl)amino)-2-(2,6-dioxopiperidin-3-yl)isoindoline-1,3-dione]	28		
147 ± 28	> 10000	155	Cc1cc(Nc2ncc(Cl)c(Nc3ccccc3S(=O)(=O)C(C)C)n2)c(OC(C)C)cc1C1CCN(C2CCN(CC3CCN(c4ccc5c(c4)C(=O)N(C4CCC(=O)NC4=O)C5=O)CC3)CC2)CC1 (centres unmarked) [8t, 5-(4-((4-(4-((5-Chloro-4-((2-(isopropylsulfonyl)phenyl)amino)pyrimidin-2-yl)amino)-5-isopropoxy-2-methylphenyl)-[1,4′-bipiperidin]-1′-yl)methyl)piperidin-1-yl)-2-(2,6-dioxopiperidin-3-yl)isoindoline-1,3-dione]	81		
66 ± 6	6120 ± 4070	57	Cc1cc(Nc2ncc(Cl)c(Nc3ccccc3S(=O)(=O)C(C)C)n2)c(OC(C)C)cc1C1CCN(C2CN(CC3CN(c4ccc5c(c4)C(=O)N(C4CCC(=O)NC4=O)C5=O)C3)C2)CC1 (centres unmarked) [8q, 5-(3-((3-(4-(4-((5-Chloro-4-((2-(isopropylsulfonyl)phenyl)amino)pyrimidin-2-yl)amino)-5-isopropoxy-2-methylphenyl)piperidin-1-yl)azetidin-1-yl)methyl)azetidin-1-yl)-2-(2,6-dioxopiperidin-3-yl)isoindoline-1,3-dione]	85		
6.6 ± 0.4	427 ± 32	8	COc1cc(N2CCN(c3ccc4c(c3)CN(C3CCC(=O)NC3=O)C4=O)CC2)ccc1Nc1ncc(Cl)c(Nc2ccccc2P(C)(C)=O)n1 (centres unmarked) [9l, 3-(5-(4-(4-((5-Chloro-4-((2-(dimethylphosphoryl)phenyl)amino)pyrimidin-2-yl)amino)-3-methoxyphenyl)piperazin-1-yl)-1-oxoisoindolin-2-yl)piperidine-2,6-dione]	92		
116 ± 21	> 10000	122	Cc1cc(Nc2ncc(Cl)c(Nc3ccccc3S(=O)(=O)C(C)C)n2)c(OC(C)C)cc1C1CCN(C2CN(C3CN(c4ccc5c(c4)C(=O)N(C4CCC(=O)NC4=O)C5=O)C3)C2)CC1 (centres unmarked) [8o, 5-(3-(4-(4-((5-Chloro-4-((2-(isopropylsulfonyl)phenyl)amino)pyrimidin-2-yl)amino)-5-isopropoxy-2-methylphenyl)piperidin-1-yl)-[1,3′-biazetidin]-1′-yl)-2-(2,6-dioxopiperidin-3-yl)isoindoline-1,3-dione]	65		
106 ± 29	> 5000	145	C[C@@H](Oc1cc(-c2cnn(C3CCN(CCC4CCN(c5cccc6c5C(=O)N(C5CCC(=O)NC5=O)C6=O)CC4)CC3)c2)cnc1N)c1c(Cl)ccc(F)c1Cl (stereo partly drawn) [7d, 4-(4-(2-(4-(4-(6-Amino-5-((R)-1-(2,6-dichloro-3-fluorophenyl)ethoxy)pyridin-3-yl)-1H-pyrazol-1-yl)piperidin-1-yl)ethyl)piperidin-1-yl)-2-(2,6-dioxopiperidin-3-yl)isoindoline-1,3-dione]	78		
106 ± 9	> 10000	120	Cc1cc(Nc2ncc(Cl)c(Nc3ccccc3S(=O)(=O)C(C)C)n2)c(OC(C)C)cc1C1CCN(C2CCN(C3CCN(c4ccc5c(c4)C(=O)N(C4CCC(=O)NC4=O)C5=O)CC3)CC2)CC1 (centres unmarked) [8s, 5-(4-(4-((5-Chloro-4-((2-(isopropylsulfonyl)phenyl)amino)pyrimidin-2-yl)amino)-5-isopropoxy-2-methylphenyl)-[1,4′:1′,4″-terpiperidin]-1″-yl)-2-(2,6-dioxopiperidin-3-yl)isoindoline-1,3-dione]	82		
183 ± 41	2560 ± 242	302	Cc1cc(Nc2ncc(Cl)c(Nc3ccccc3S(=O)(=O)C(C)C)n2)c(OC(C)C)cc1C1CCN(C2CCN(CCNc3cccc4c3C(=O)N(C3CCC(=O)NC3=O)C4=O)CC2)CC1 (centres unmarked) [8d, 4-((2-(4-(4-((5-Chloro-4-((2-(isopropylsulfonyl)phenyl)amino)pyrimidin-2-yl)amino)-5-isopropoxy-2-methylphenyl)-[1,4′-bipiperidin]-1′-yl)ethyl)amino)-2-(2,6-dioxopiperidin-3-yl)isoindoline-1,3-dione]	66		
2700 ± 254	> 5000	> 1000	C[C@@H](Oc1cc(-c2cnn(C3CCN(CC4CN(c5cccc6c5C(=O)N(C5CCC(=O)NC5=O)C6=O)C4)CC3)c2)cnc1N)c1c(Cl)ccc(F)c1Cl (stereo partly drawn) [7b, 4-(3-((4-(4-(6-Amino-5-((R)-1-(2,6-dichloro-3-fluorophenyl)ethoxy)pyridin-3-yl)-1H-pyrazol-1-yl)piperidin-1-yl)methyl)azetidin-1-yl)-2-(2,6-dioxopiperidin-3-yl)isoindoline-1,3-dione]	<5		

Compound	IC50 ([1]; Mus musculus, BaF3, 72 h) [nM]	IC50 (Ba/F3 ROS1-G2032R; Mus musculus, BaF3) [nM]	DC50 (ROS1) [nM]	Dmax (%) (ROS1) (ROS1)	IC50 [1] [nM]	IC50 (Ba/F3 ROS1-G2032R) [nM]
3-(5-(4-((4-(4-((5-Chloro-4-((2-(dimethylphosphoryl)phenyl)amino)pyrimidin-2-yl)amino)-3-methoxyphenyl)piperazin-1-yl)methyl)piperidin-1-yl)-1-oxoisoindolin-2-yl)piperidine-2,6-dione [9n]			11	93	9.5 ± 0.5	195 ± 124
